Laboratory results taken from patent publication US10624875B2, “Methods and compositions for treating schizophrenia” (The Johns Hopkins University, priority 2012, dated 2020).
Where “and” joins values, the source holds several entries; their conditions need not be identical. Identical values can stand only once.

Tested on: aged-impaired (AI) rats
Test: eight-arm Radial Arm Maze (RAM) task with one-hour delay, spatial memory retention
Format: in vivo, rat
Experimental: The effects of levetiracetam on the spatial memory retention of aged-impaired (AI) rats were assessed in a Radial Arm Maze (RAM) behavioral task using vehicle control and five different dosage levels of levetiracetam (1.25 mg/kg/day, 2.5 mg/kg/day, 5 mg/kg/day, 10 mg/kg/day and 20 mg/kg/day). RAM behavioral tasks were preformed on ten AI rats. All six treatment conditions were tested on all ten rats, as described above for the MWM test. The RAM apparatus used consisted of eight equidistantly-spaced arms. An elevated maze arm (7 cm width×75 cm length) projected from each facet of an octagonal center platform (30 cm diameter, 51.5 cm height). Clear side walls on the arms were 10 cm high and were angled at 65° to form a trough. A food well (4 cm diameter, 2 cm deep) was located at the distal end of each arm. Froot Loops™ (Kellogg Company) were used as rewards. Blocks constructed of Plexiglas™ (30 cm height×12 cm width) could be positioned to prevent entry to any arm. Numerous extra maze cues surrounding the apparatus were also provided. The AI rats were initially subjected to a pre-training test (Chappell et al. Neuropharmacology 37: 481-487, 1998). The pre-training test consisted of a habituation phase (4 days), a training phase on the standard win-shift task (18 days) and another training phase (14 days) in which a brief delay was imposed between presentation of a subset of arms designated by the experimenter (e.g., 5 arms available and 3 arms blocked) and completion of the eight-arm win-shift task (i.e., with all eight arms available). In the habituation phase, rats were familiarized to the maze for an 8-minute session on four consecutive days. In each of these sessions food rewards were scattered on the RAM, initially on the center platform and arms and then progressively confined to the arms. After this habituation phase, a standard training protocol was used, in which a food pellet was located at the end of each arm. Rats received one trial each day for 18 days. Each daily trial terminated when all eight food pellets had been obtained or when either 16 choices were made or 15 minutes had elapsed. After completion of this training phase, a second training phase was carried out in which the memory demand was increased by imposing a brief delay during the trial. At the beginning of each trial, three arms of the eight-arm maze were blocked. Rats were allowed to obtain food on the five arms to which access was permitted during this initial ‘information phase’ of the trial. Rats were then removed from the maze for 60 seconds, during which time the barriers on the maze were removed, thus allowing access to all eight arms. Rats were then placed back onto the center platform and allowed to obtain the remaining food rewards during this ‘retention test’ phase of the trial. The identity and configuration of the blocked arms varied across trials. The number of “errors” the AI rats made during the retention test phase was tracked. An error occurred in the trial if the rats entered an arm from which food had already been retrieved in the pre-delay component of the trial, or if it re-visited an arm in the post-delay session that had already been visited. After completion of the pre-training test, rats were subjected to trials with more extended delay intervals, i.e., a one-hour delay, between the information phase (presentation with some blocked arms) and the retention test (presentation of all arms). […]

[1] = drug on its own (levetiracetam i.p., valproate subcutaneous)

## CC[C@@H](C(N)=O)N1CCCC1=O [levetiracetam, (2S)-2-(2-oxopyrrolidin-1-yl) butanamide]
20 mg/kg
  performance in the radial maze task: fails to improve the performance
[1]
  dose effective in reducing the number of errors: 5 to 10 mg/kg
  dose not effective in reducing the number of errors: 1.25 mg/kg and 2.5 mg/kg
